By EC50 is commonly meant the concentration giving half of the maximal effect. Low readings indicate a more potent agent, high ones a less potent agent.

Where “and” joins values, the source holds several entries; their conditions need not be identical. Equal values may be shown once.

This assay deals with EGFR (Human), P00533 [T790M/L858R]. Conditions: nci-h1975.
Sequence of EGFR (Human), P00533 [T790M/L858R] (P00533 whole entry T790M/L858R, looked up): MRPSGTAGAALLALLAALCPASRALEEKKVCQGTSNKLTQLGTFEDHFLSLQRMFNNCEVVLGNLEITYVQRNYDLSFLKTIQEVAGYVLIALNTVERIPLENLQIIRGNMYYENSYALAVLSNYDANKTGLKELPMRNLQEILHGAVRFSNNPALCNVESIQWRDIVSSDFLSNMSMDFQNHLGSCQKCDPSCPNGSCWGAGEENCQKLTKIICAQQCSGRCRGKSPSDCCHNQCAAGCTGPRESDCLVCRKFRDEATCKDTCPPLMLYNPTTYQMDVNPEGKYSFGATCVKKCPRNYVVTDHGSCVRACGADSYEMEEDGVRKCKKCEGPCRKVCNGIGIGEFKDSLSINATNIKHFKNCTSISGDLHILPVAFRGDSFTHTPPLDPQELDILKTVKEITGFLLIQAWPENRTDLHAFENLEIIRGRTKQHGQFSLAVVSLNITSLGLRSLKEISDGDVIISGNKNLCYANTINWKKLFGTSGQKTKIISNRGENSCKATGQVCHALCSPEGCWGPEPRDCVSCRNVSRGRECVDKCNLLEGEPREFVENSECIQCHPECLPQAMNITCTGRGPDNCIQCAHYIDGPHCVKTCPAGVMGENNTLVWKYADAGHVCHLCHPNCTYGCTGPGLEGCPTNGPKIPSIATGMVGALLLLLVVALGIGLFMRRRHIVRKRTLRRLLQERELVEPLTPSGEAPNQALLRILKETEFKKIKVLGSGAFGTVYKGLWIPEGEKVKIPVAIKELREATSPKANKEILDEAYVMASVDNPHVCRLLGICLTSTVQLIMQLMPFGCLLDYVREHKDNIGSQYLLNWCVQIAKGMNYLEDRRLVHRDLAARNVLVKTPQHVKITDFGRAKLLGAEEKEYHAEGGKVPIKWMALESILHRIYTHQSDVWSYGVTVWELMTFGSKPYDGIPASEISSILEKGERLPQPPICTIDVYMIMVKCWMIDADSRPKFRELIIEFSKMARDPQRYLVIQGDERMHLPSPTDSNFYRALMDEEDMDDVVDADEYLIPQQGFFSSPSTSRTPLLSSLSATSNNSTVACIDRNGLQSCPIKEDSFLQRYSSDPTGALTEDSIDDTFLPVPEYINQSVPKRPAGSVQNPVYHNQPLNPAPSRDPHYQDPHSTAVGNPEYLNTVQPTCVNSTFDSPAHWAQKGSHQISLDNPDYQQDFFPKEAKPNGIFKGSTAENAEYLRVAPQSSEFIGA
With `CC(C)n1nc(N2CC(CO)C2)c2cnc(Nc3ccnc(-c4cnn(S(=O)(=O)C5CC5)c4)n3)cc21`, the half-maximal effective concentration (EC50) is 271 nM. The figure for `CC(C)n1nc(N2CCCC2=O)c2cnc(Nc3ccnc(-c4cnn(S(=O)(=O)C5CC5)c4)n3)cc21` is 232 nM; for `CC[C@H](C)n1nc(N2CC3(COC3)C2)c2cnc(Nc3ccnc(N4CC[C@@H](O)[C@@H](F)C4)n3)cc21` it is 348 nM; for `CCC(C)n1nc(N2CC[C@@H](O)C2)c2cnc(Nc3ccnc(N4CCC(C)(O)CC4)n3)cc21` (stereo partly drawn) it is 619 nM. For the compound `CC(C)n1nc(N2CC(C(=O)N(C)C)C2)c2cnc(Nc3ccnc(N4CCC(O)C(C)(C)C4)n3)cc21` (stereo not drawn), the 50% effective concentration (EC50) was determined as 348 nM. The value for `CC(C)n1nc(N2CC(C(C)(C)C#N)C2)c2cnc(Nc3ccnc(-c4cnn(S(=O)(=O)C5CC5)c4)n3)cc21` was 1380 nM; that for `CC(C)n1nc(N2CCNC(=O)C2)c2cnc(Nc3ccnc(-c4cnn(S(=O)(=O)C5CC5)c4)n3)cc21` was 738 nM. The value for `CCC(C)n1nc(N2CCS(=N)(=O)CC2)c2cnc(Nc3ccnc(N4CCC(C)(O)CC4)n3)cc21` (stereo not drawn) was 9980 nM. The value for `CCC(C)n1nc(N2CC(F)(F)C2)c2cnc(Nc3ccnc(N4CCC(C)(O)CC4)n3)cc21` (stereo not drawn) was 1600 nM. In the case of `CC(C)n1nc(N2CC(C)(CO)C2)c2cnc(Nc3ccnc(-c4cnn(S(=O)(=O)C5CC5)c4)n3)cc21`, the EC50 was 620 nM. Compound `CCC(C)n1nc(N2CCNC2=O)c2cnc(Nc3ccnc(-c4cnn(S(=O)(=O)C5CC5)c4)n3)cc21` (stereo not drawn) returned a concentration for a half-maximal effect (EC50) of 138 nM. The figure for `CC[C@@H](C)n1nc(N2CC3(COC3)C2)c2cnc(Nc3ccnc(OCC(C)(C)S(C)(=O)=O)n3)cc21` is 1240 nM; for `CC(C)n1nc(NC(=O)C(C)(C)O)c2cnc(Nc3ccnc(-c4cnn(S(=O)(=O)C5CC5)c4)n3)cc21` it is 2080 nM.

Regarding `CC[C@@H](C)n1nc(N2CC3(COC3)C2)c2cnc(Nc3ccnc(N4CC[C@@H](O)[C@@H](F)C4)n3)cc21`, the EC50 was determined as 149 nM.

`CCC(C)n1nc(N2CC(N)C(F)(F)C2)c2cnc(Nc3ccnc(N4CCC(C)(O)CC4)n3)cc21` (stereo not drawn): the EC50 was 761 nM. The value for `CC(n1nc(N2CC[C@@H](O)C2)c2cnc(Nc3ccnc(N4CCC(C)(O)CC4)n3)cc21)C(F)(F)F` (stereo partly drawn) was 901 nM; that for `CCC(C)n1nc(N2CC[C@@H](O)C2)c2cnc(Nc3ccnc(N4CC[C@H](O)[C@H](F)C4)n3)cc21` (stereo partly drawn) was 263 nM. In turn, `CC(C)n1nc(N2CCC2)c2cnc(Nc3ccnc(-c4cnn(S(=O)(=O)C5CC5)c4)n3)cc21` gave an EC50 of 158 nM. The figure for `CNC(=O)C1CN(c2nn(C(C)C)c3cc(Nc4ccnc(-c5cnn(S(=O)(=O)C6CC6)c5)n4)ncc23)C1` is 650 nM; for `Cc1cn[nH]c1-c1nn(C(C)C)c2cc(Nc3ccnc(N4CCC(O)C(C)(C)C4)n3)ncc12` (stereo not drawn) it is 1710 nM. The figure for `CC(C)n1nc(NCC(F)(F)F)c2cnc(Nc3ccnc(-c4cnn(S(=O)(=O)C5CC5)c4)n3)cc21` is more than 10000 nM; for `CC(C)n1nc(N2CC(F)(F)C2)c2cnc(Nc3ccnc(-c4cnn(S(=O)(=O)C5CC5)c4)n3)cc21` it is 312 nM.

For the compound `CC(C)Nc1nn(C(C)C)c2cc(Nc3ccnc(-c4cnn(S(=O)(=O)C5CC5)c4)n3)ncc12`, the EC50 was determined as 951 nM. The value for `CC[C@@H](C)n1nc(N2CC[C@@H](O)C2)c2cnc(Nc3ccnc(N4CC[C@](C)(C(N)=O)C4)n3)cc21` was 4050 nM; that for `CC(C)n1nc(N2CC3(COC3)C2)c2cnc(Nc3ccnc(N4CCC(O)C(C)(C)C4)n3)cc21` (stereo not drawn) was 159 nM.

`CC(C)n1nc(N)c2cnc(Nc3ccnc(-c4cnn(S(=O)(=O)C5CC5)c4)n3)cc21` showed an EC50 of 247 nM. `CC(C)n1nc(N2CC(C#N)C2)c2cnc(Nc3ccnc(-c4cnn(S(=O)(=O)C5CC5)c4)n3)cc21` returned a 50% effective concentration (EC50) of 144 nM. In turn, `CC(C)n1nc(N2CCCNC2=O)c2cnc(Nc3ccnc(-c4cnn(S(=O)(=O)C5CC5)c4)n3)cc21` gave a concentration giving a half-maximal response (EC50) of 765 nM. The value for `CC(C)n1nc(N2CC(C(=O)N3CC[C@@H](CO)C3)C2)c2cnc(Nc3ccnc(-c4cnn(S(=O)(=O)C5CC5)c4)n3)cc21` was 1830 nM. The value for `CCS(=O)(=O)n1cc(-c2nccc(Nc3cc4c(cn3)c(N3CC(C(=O)N(C)C)C3)nn4C(C)C)n2)cn1` was 236 nM; that for `CCC(C)n1nc(N2C[C@@H](CO)NC2=O)c2cnc(Nc3ccnc(-c4cnn(S(=O)(=O)C5CC5)c4)n3)cc21` (stereo partly drawn) was 5590 nM; that for `CC(C)n1nc(N2CC(N3CCOCC3)C2)c2cnc(Nc3ccnc(-c4cnn(S(=O)(=O)C5CC5)c4)n3)cc21` was 432 nM. The compound `CC(C)n1nc(N2CC[C@H](O)C2)c2cnc(Nc3ccnc(-c4cnn(S(=O)(=O)C5CC5)c4)n3)cc21` registered an EC50 of 201 nM. The value for `CC[C@H](C)n1nc(N2CC3(COC3)C2)c2cnc(Nc3ccnc(OCC(C)(C)S(C)(=O)=O)n3)cc21` was 785 nM. The value for `CCC(C)n1nc(N2CCN(C(=O)[C@H](C)O)CC2)c2cnc(Nc3ccnc(-c4cnn(S(=O)(=O)C5CC5)c4)n3)cc21` (stereo partly drawn) was 813 nM. The value for `CC(C)n1nc(N2CCCC2)c2cnc(Nc3ccnc(N4CCC(O)C(C)(C)C4)n3)cc21` (stereo not drawn) was 499 nM. For `CC(C)n1nc(N2CC3(COC3)C2)c2cnc(Nc3ccnc(-c4cnn(CC5CC5)c4)n3)cc21`, the concentration giving a half-maximal response (EC50) was found to be 732 nM. In the case of `CC(C)n1nc(N2CC[C@@H](O)C2)c2cnc(Nc3ccnc(N4CCC(C)(O)CC4)n3)cc21`, the EC50 turned out to be 831 nM. The figure for `CC(C)n1nc(N2CCOC2=O)c2cnc(Nc3ccnc(-c4cnn(S(=O)(=O)C5CC5)c4)n3)cc21` is 206 nM; for `CCC(C)n1nc(N2CC[C@H](C(N)=O)C2)c2cnc(Nc3ccnc(N4CCC(C)(O)CC4)n3)cc21` (stereo partly drawn) it is 2200 nM; for `CCC(C)n1nc(N2CC3(COC3)C2)c2cnc(Nc3ccnc(-c4cnn(S(=O)(=O)C5CC5)c4)n3)cc21` (stereo not drawn) it is 216 nM.

As for `CC(C)n1nc(N2CC[C@H](CO)C2)c2cnc(Nc3ccnc(-c4cnn(S(=O)(=O)C5CC5)c4)n3)cc21`, the concentration for a half-maximal effect (EC50) is 139 nM. For the compound `CC(C)n1nc(NC2CCOCC2)c2cnc(Nc3ccnc(-c4cnn(S(=O)(=O)C5CC5)c4)n3)cc21`, the EC50 is 1110 nM.

`CC(C)n1nc(N2CC3(CN(CC(F)(F)F)C3)C2)c2cnc(Nc3ccnc(-c4cnn(S(=O)(=O)C5CC5)c4)n3)cc21` came in with a concentration giving a half-maximal response (EC50) of 1140 nM. Take `CC(C)n1nc(N2CC[C@@H](C#N)C2)c2cnc(Nc3ccnc(-c4cnn(S(=O)(=O)C5CC5)c4)n3)cc21`: the EC50 is 121 nM.

`CC(C)n1nc(N2CCOCC2)c2cnc(Nc3ccnc(-c4cnn(CC5CC5)c4)n3)cc21` displayed an EC50 of 1840 nM. The compound `CC(C)n1nc(N2CC(C(=O)N3CCOCC3)C2)c2cnc(Nc3ccnc(-c4cnn(S(=O)(=O)C5CC5)c4)n3)cc21` had an EC50 of 344 nM. The value for `CC(O)C1CN(c2nn(C(C)C)c3cc(Nc4ccnc(-c5cnn(S(=O)(=O)C6CC6)c5)n4)ncc23)C1` (stereo not drawn) was 266 nM; that for `CC(C)n1nc(N2CC(C(=O)NCC(F)(F)F)C2)c2cnc(Nc3ccnc(-c4cnn(S(=O)(=O)C5CC5)c4)n3)cc21` was 193 nM. The figure for `CC(C)n1nc(N2CC3(C2)CS(=O)(=O)C3)c2cnc(Nc3ccnc(N4CCC(C)(O)CC4)n3)cc21` is 3090 nM; for `CCC(C)n1nc(N2CCCC2=O)c2cnc(Nc3ccnc(N4CCC(C)(O)CC4)n3)cc21` (stereo not drawn) it is 569 nM.

In the case of `CC[C@@H](C)n1nc(N2CC[C@@H](O)C2)c2cnc(Nc3ccnc(N4CCC5(CC4)CNC(=O)CO5)n3)cc21`, the 50% effective concentration (EC50) amounted to 9130 nM. The value for `CC(C)n1nc(N2CC(C(=O)N(C)C)C2)c2cnc(Nc3ccnc(-c4cnn(S(=O)(=O)C5CC5)c4)n3)cc21` was 159 nM; that for `CC(C)n1nc(N2CCCC2)c2cnc(Nc3ccnc(-c4cnn(CC5CC5)c4)n3)cc21` was 1060 nM.

Turning to `CC[C@H](C)n1nc(N2CC3(COC3)C2)c2cnc(Nc3ccnc(N4CC[C@](C)(O)[C@H](F)C4)n3)cc21`, the half-maximal effective concentration (EC50) is 874 nM and 631 nM. `CCN1CCN(c2nn(C(C)C)c3cc(Nc4ccnc(-c5cnn(S(=O)(=O)C6CC6)c5)n4)ncc23)CC1` registered an EC50 of 1010 nM.

`CC(C)n1nc(N[C@H]2CCOC2)c2cnc(Nc3ccnc(-c4cnn(S(=O)(=O)C5CC5)c4)n3)cc21`: the concentration for a half-maximal effect (EC50) was 373 nM. In turn, `CC(C)Oc1nn(C(C)C)c2cc(Nc3ccnc(-c4cnn(S(=O)(=O)C5CC5)c4)n3)ncc12` gave a concentration for a half-maximal effect (EC50) of 3590 nM.

As to `CC(C)n1nc(N2CC(C)(O)C2)c2cnc(Nc3ccnc(-c4cnn(S(=O)(=O)C5CC5)c4)n3)cc21`, the concentration for a half-maximal effect (EC50) turned out to be 289 nM.

`CC(C)n1nc(NCC(C)(C)O)c2cnc(Nc3ccnc(-c4cnn(S(=O)(=O)C5CC5)c4)n3)cc21`: the EC50 amounted to 1200 nM. The figure for `CC[C@@H](C)n1nc(N2CC3(COC3)C2)c2cnc(Nc3ccnc(N4CC[C@](C)(O)[C@H](F)C4)n3)cc21` is 1160 nM and 851 nM; for `CC[C@H](C)n1nc(N2CC[C@@H](O)C2)c2cnc(Nc3ccnc(N4CC[C@](C)(O)[C@H](F)C4)n3)cc21` it is 521 nM.

`CCS(=O)(=O)n1cc(-c2nccc(Nc3cc4c(cn3)c(NC3COC3)nn4C(C)C)n2)cn1` displayed an EC50 of 921 nM. Turning to `CC(C)n1nc(N2CC(O)(CO)C2)c2cnc(Nc3ccnc(-c4cnn(S(=O)(=O)C5CC5)c4)n3)cc21`, the EC50 was 660 nM. The value for `CC(n1nc(N2CC3(COC3)C2)c2cnc(Nc3ccnc(N4CCC(C)(O)CC4)n3)cc21)C(F)(F)F` (stereo not drawn) was 3290 nM; that for `CC(C)n1nc(N2CC[C@H](O)C2=O)c2cnc(Nc3ccnc(-c4cnn(S(=O)(=O)C5CC5)c4)n3)cc21` was 630 nM; that for `CCC(C)n1nc(N2CC3(COC3)C2)c2cnc(Nc3ccnc(N4CCC(C)(O)CC4)n3)cc21` (stereo not drawn) was 881 nM. Turning to `CC(C)n1nc(N2CC(N)CC2=O)c2cnc(Nc3ccnc(N4CCC(C)(O)CC4)n3)cc21` (stereo not drawn), the EC50 is more than 10000 nM.

Compound `CC(C)n1nc(N2CCC3(COC3)C2)c2cnc(Nc3ccnc(-c4cnn(S(=O)(=O)C5CC5)c4)n3)cc21` had a 50% effective concentration (EC50) of 431 nM. For `CC(C)n1nc(N2CCS(=O)(=O)CC2)c2cnc(Nc3ccnc(-c4cnn(S(=O)(=O)C5CC5)c4)n3)cc21`, the EC50 came out at 2020 nM. In turn, `CC(C)n1nc(OC2CCOC2)c2cnc(Nc3ccnc(-c4cnn(S(=O)(=O)C5CC5)c4)n3)cc21` (stereo not drawn) gave an EC50 of 798 nM. For the compound `CCC(C)n1nc(N2CCNC2=O)c2cnc(Nc3ccnc(N4CC[C@H](O)[C@H](F)C4)n3)cc21` (stereo partly drawn), the EC50 came to 208 nM.

The compound `COC1CCN(c2nccc(Nc3cc4c(cn3)c(N)nn4C[C@H]3CC[C@H](N)CC3)n2)CC1` had a concentration for a half-maximal effect (EC50) of more than 10000 nM.

The values above are taken from the Kinase Knowledgebase extract (Sharma et al. 2016).
